# Assays:
# [1] = cited from earlier work
# [2] = test system: CCR9 on CD4+ T-cells expressing the DO-11.10 T-cell receptor; experiment: Adoptive T-cell transfer with fingolimod: CCR9 expression and proliferation of DO-11.10 CD4+ T-cells in draining lymph nodes; assay type: in vivo, mice; conditions: FACS, MF59-adjuvanted ovalbumin plus retinoic acid versus MF59 plus plain vehicle
# Method: Reference describes experimental protocols for studying the homing of T-cells in mice who receive retinoic acid. In brief, T-cells specific for test antigens (in the present case, ovalbumin) are adoptively transferred into mice and their behaviour in response to specific treatments is studied. This general experimental procedure was used to assess the effect of MF59 and retinoic acid on CCR9 expression in T-cells, and on their in vivo migration.
# Mice were injected intravenously with 2×10^6 CD4^+ T-cells which react to ovalbumin peptides (DO-11.10 cells). These cells were labelled with CFSE before being administered. At around the same time they were given either retinoic acid or a plain vehicle. The next day they received MF59-adjuvanted ovalbumin, and the next day they again received RA or plain vehicle, plus fingolimod (which blocks the egress of lymphocytes from lymph nodes). A few days later their draining lymph nodes were drained and CD4^+ T-cells expressing the DO-11.10 T-cell receptor were tested for CCR9 expression by FACS. The CFSE label was used to trace cell proliferation.
# [3] = Mucosal antibody responses after MF59-adjuvanted immunisation; assay type: in vivo, mice
# Method: To assess antibody responses mice were injected with 3 doses of either ovalbumin or H56 (a […] antigen) on days 0, 21, and 42, adjuvanted with MF59. The day before and after each immunization one group of mice were given retinoic acid whereas control mice received a plain vehicle instead. Serum IgG and vaginal wash IgA antibody responses were assessed at day 56. IgA-secreting cells were also measured in the bone marrow.
smiles,measurement,setting,value
CC1=C(/C=C/C(C)=C/C=C/C(C)=C/C(=O)O)C(C)(C)CCC1 [retinoic acid],solubility in oil,[1],soluble
same,solubility in water,[1],sparingly soluble
same,"number of CCR9-positive cells, fold higher",[2],about 5 ×
same,"proportion of IgA-secreting cells, fold higher, H56","[3]; bone marrow, H56 adjuvanted with MF59, retinoic acid versus plain vehicle",around 12 ×
same,"proportion of IgA-secreting cells, fold higher, ovalbumin","[3]; bone marrow, ovalbumin adjuvanted with MF59, retinoic acid versus plain vehicle",about 7 ×
same,antigen-specific IgA titres in vaginal washes,"[3]; day 56, 3 MF59-adjuvanted doses, plain vehicle essentially zero",about 1250

# — patent publication US11197826B2, “Oil-in-water emulsions including retinoic acid” (NOVARTIS AG, priority 2015, dated 2021)
